From US11866430B2, “Naphthyridinone compounds useful as T cell activators” (priority 2018, dated 2024)
pIC50: −log10 of the molar value. Read-outs that look alike come from different tables or passages of the source.

Legend:
[1] = target: human DGKα (Homo sapiens (Human), UniProt P23743); test: biochemical; conditions: detergent/lipid micelle substrate; read-out: DGKα IC50
Procedure, shortened: (§1)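 Full-length human DGKζ (and DGKα), C-terminal His-tagged, Sf9-expressed, with phosphatidylserine/DAG micelles in 50 mM octyl glucoside; buffer 50 mM MOPS pH 7.5, 100 mM NaCl, 10 mM MgCl2, 1 μM CaCl2, 1 mM DTT.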

[2] = target: human DGKζ (Homo sapiens (Human), UniProt Q13574); test: DGKζ assay (detergent/lipid micelle substrate); assay type: biochemical
Sequence of human DGKζ (Q13574 other isoform, or with tags, fused parts or gaps): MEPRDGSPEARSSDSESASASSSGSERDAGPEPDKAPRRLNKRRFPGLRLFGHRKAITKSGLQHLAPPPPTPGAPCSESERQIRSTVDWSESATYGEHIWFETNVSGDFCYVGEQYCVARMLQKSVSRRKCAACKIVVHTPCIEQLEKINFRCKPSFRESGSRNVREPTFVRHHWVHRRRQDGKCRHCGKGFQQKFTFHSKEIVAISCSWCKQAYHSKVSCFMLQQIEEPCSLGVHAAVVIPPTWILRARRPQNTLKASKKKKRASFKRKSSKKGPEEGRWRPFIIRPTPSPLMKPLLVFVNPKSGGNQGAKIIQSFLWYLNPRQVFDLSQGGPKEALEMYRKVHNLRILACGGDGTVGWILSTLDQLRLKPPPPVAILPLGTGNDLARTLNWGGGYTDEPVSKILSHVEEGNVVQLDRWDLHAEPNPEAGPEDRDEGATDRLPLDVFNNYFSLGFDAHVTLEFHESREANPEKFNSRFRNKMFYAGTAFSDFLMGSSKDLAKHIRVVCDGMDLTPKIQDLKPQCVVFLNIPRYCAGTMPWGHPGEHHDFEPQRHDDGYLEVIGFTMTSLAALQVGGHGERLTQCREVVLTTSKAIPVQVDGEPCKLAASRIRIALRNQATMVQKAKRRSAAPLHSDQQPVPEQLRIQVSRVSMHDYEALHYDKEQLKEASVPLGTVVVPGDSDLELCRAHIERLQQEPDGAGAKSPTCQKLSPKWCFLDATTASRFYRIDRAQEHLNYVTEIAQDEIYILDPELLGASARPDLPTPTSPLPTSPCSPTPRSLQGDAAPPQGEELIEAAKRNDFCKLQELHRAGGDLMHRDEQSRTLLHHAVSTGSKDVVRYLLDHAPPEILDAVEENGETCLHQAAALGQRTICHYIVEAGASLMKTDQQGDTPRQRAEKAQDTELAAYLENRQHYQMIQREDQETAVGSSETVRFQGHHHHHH
Procedure, shortened: as §1

[3] = tested on: pre-activated CD4 T cells and Raji cells; test: Raji CD4 T Cell IL2 Assay; assay type: cell-based
[4] = detergent/lipid micelle substrate, read-out: DGKζ IC50

Sequence of human DGKα (P23743 other isoform, or with tags, fused parts or gaps): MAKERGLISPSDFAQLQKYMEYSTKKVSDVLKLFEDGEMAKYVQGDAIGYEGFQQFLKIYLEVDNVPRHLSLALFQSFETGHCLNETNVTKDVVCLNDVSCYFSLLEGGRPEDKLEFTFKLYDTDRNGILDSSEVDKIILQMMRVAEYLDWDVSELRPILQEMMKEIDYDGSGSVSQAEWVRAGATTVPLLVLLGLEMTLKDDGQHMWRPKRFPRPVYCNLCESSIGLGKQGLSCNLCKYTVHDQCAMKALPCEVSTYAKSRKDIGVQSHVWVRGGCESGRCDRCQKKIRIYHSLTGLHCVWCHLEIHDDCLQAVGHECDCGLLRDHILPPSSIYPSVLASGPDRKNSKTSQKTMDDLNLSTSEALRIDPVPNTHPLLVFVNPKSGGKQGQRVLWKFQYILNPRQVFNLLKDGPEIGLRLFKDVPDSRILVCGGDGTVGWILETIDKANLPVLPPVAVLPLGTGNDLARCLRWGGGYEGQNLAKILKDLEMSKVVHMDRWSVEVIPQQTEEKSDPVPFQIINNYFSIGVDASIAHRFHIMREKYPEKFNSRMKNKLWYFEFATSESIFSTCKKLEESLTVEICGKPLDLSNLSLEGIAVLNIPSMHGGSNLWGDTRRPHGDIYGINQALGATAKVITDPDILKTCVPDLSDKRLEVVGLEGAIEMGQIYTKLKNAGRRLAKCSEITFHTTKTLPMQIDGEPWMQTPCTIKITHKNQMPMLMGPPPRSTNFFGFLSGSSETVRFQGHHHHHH

Cn1c(=O)c(C#N)c(N2CCN(Cc3ccc(Cl)c(F)c3)CC2)c2nc(Cl)ccc21 [Example 326, 6-chloro-4-{4-[(4-chloro-3-fluorophenyl)methyl]piperazin-1-yl}-1-methyl-2-oxo-1,2-dihydro-1,5-naphthyridine-3-carbonitrile]
pIC50 [1]: 5.72
pIC50 [2, 4]: < 3.62
pIC50 ([3]; Homo sapiens, Raji): 6.42

Cn1c(=O)c([N+](=O)[O-])c(N2CCN(C3(c4ccc(F)cc4)CC3)CC2)c2nc(C#N)ccc21 [Example 342, 8-{4-[1-(4-fluorophenyl)cyclopropyl]piperazin-1-yl}-5-methyl-7-nitro-6-oxo-5,6-dihydro-1,5-naphthyridine-2-carbonitrile]
pIC50 [1]: 4.55
pIC50 [2, 4]: < 3.62
pIC50 ([3]; Homo sapiens, Raji): 6.10

C#CCOc1ccccc1C(c1ccc(F)cc1)N1CCN(c2c(C#N)c(=O)n(C)c3ccc(Br)nc23)CC1 (single isomer, unassigned) [Example 6, 6-bromo-4-{4-[(4-fluorophenyl) [2-(prop-2-yn-1-yloxy)phenyl]methyl]piperazin-1-yl}-1-methyl-2-oxo-1,2-dihydro-1,5-naphthyridine-3-carbonitrile]
pIC50 [1]: 5.19
pIC50 [2, 4]: < 3.62
pIC50 [3]: 6.09

Cn1c(=O)c([N+](=O)[O-])c(N2CCN(C(c3ccccc3)c3ccccc3)CC2)c2nc(Br)ccc21 [Example 52, 4-(4-benzhydrylpiperazin-1-yl)-6-bromo-1-methyl-3-nitro-1,5-naphthyridin-2(1H)-one]
pIC50 [1]: 5.11
pIC50 [2, 4]: 3.82
pIC50 ([3]; Homo sapiens, Raji): 7.25

Cc1ccccc1CN1CCN(c2c(C#N)c(=O)n(C)c3ccc(Cl)nc23)CC1 [Example 346, 6-chloro-1-methyl-4-{4-[(2-methylphenyl)methyl]piperazin-1-yl}-2-oxo-1,2-dihydro-1,5-naphthyridine-3-carbonitrile]
pIC50 [1]: 5.28
pIC50 [2, 4]: < 3.62
pIC50 ([3]; Homo sapiens, Raji): 5.96

Cn1c(=O)c(C#N)c(N2CCN(Cc3ccccc3OC(F)(F)F)CC2)c2nc(Cl)ccc21 [Example 285, 6-chloro-1-methyl-2-oxo-4-(4-{[2-(trifluoromethoxy)phenyl]methyl}piperazin-1-yl)-1,2-dihydro-1,5-naphthyridine-3-carbonitrile]
pIC50 [1]: 6.04
pIC50 [2, 4]: < 3.62
pIC50 ([3]; Homo sapiens, Raji): 7.00

Cn1c(=O)c(C#N)c(N2CCN(Cc3ccccc3O)CC2)c2nc(C#N)ccc21 [Example 317, 8-{4-[(2-hydroxyphenyl)methyl]piperazin-1-yl}-5-methyl-6-oxo-5,6-dihydro-1,5-naphthyridine-2,7-dicarbonitrile]
pIC50 [1]: 6.80
pIC50 [2, 4]: 4.47
pIC50 ([3]; Homo sapiens, Raji): 6.54

COc1ccc2c(c1)C(N1CCN(c3c([N+](=O)[O-])c(=O)n(C)c4ccc(C#N)nc34)CC1)CC2 (stereo not drawn) [Example 46, 8-(4-(6-methoxy-2,3-dihydro-1H-inden-1-yl)piperazin-1-yl)-5-methyl-7-nitro-6-oxo-5,6-dihydro-1,5-naphthyridine-2-carbonitrile]
pIC50 [1]: 5.07
pIC50 [2, 4]: 5.57
pIC50 ([3]; Homo sapiens, Raji): 6.89

Cn1c(=O)c(C#N)c(N2CCN(Cc3cccc4cn[nH]c34)CC2)c2nc(Cl)ccc21 [Example 322, 6-chloro-4-{4-[(1H-indazol-7-yl)methyl]piperazin-1-yl}-1-methyl-2-oxo-1,2-dihydro-1,5-naphthyridine-3-carbonitrile]
pIC50 [1]: 5.55
pIC50 [2, 4]: < 3.62
pIC50 ([3]; Homo sapiens, Raji): 6.49

Cc1ccc2c(n1)c(N1CCN(Cc3cccc(Br)c3O)CC1)c(C#N)c(=O)n2C [Example 286, 4-{4-[(3-bromo-2-hydroxyphenyl)methyl]piperazin-1-yl}-1,6-dimethyl-2-oxo-1,2-dihydro-1,5-naphthyridine-3-carbonitrile]
pIC50 [1]: 5.92
pIC50 [2, 4]: 3.85
pIC50 ([3]; Homo sapiens, Raji): 7.00

Cc1ccc(CN2CCN(c3c(C#N)c(=O)n(C)c4ccc(Cl)nc34)CC2)cc1O [Example 328, 6-chloro-4-{4-[(3-hydroxy-4-methylphenyl)methyl]piperazin-1-yl}-1-methyl-2-oxo-1,2-dihydro-1,5-naphthyridine-3-carbonitrile]
pIC50 [1]: 6.00
pIC50 [2, 4]: 3.92
pIC50 ([3]; Homo sapiens, Raji): 6.36

Cn1c(=O)c(C#N)c(N2CCN(Cc3ccc(Cl)cc3)CC2)c2nc(Cl)ccc21 [Example 417, 6-chloro-4-{4-[(4-chlorophenyl)methyl]piperazin-1-yl}-1-methyl-2-oxo-1,2-dihydro-1,5-naphthyridine-3-carbonitrile]
pIC50 [1]: 6.60
pIC50 [2, 4]: < 3.62
pIC50 ([3]; Homo sapiens, Raji): 6.82

C=CCOc1cccc(C)c1C(c1ccc(F)cc1)N1CCN(c2c([N+](=O)[O-])c(=O)n(C)c3ccc(Br)nc23)CC1 (single isomer, unassigned) [Example 96, 4-(4-((2-(allyloxy)-6-methylphenyl)(4-fluorophenyl)methyl)piperazin-1-yl)-6-bromo-1-methyl-3-nitro-1,5-naphthyridin-2(1-H)-one]
pIC50 [1]: 4.06
pIC50 [2, 4]: 4.28
pIC50 [3]: 6.44

Cn1c(=O)c([N+](=O)[O-])c(N2CCN(C(c3ccc(F)cc3)c3ccccc3O)CC2)c2nc(C#N)ccc21 (single isomer, unassigned) [Example 98, 8-(4-((4-fluorophenyl)(2-hydroxyphenyl)methyl)piperazin-1-yl)-5-methyl-7-nitro-6-oxo-5,6-dihydro-1,5-naphthyridine-2-carbonitrile]
pIC50 [1]: 5.17
pIC50 [2, 4]: 5.36
pIC50 [3]: 6.89

O=c1c([N+](=O)[O-])c(N2CCN(C(c3ccccc3)c3ccccc3)CC2)c2ncccc2n1CCC=C(F)F [Example 186, 4-(4-benzhydrylpiperazin-1-yl)-1-(4,4-difluorobut-3-en-1-yl)-3-nitro-1,5-naphthyridin-2(1H)-one]
pIC50 [1]: < 3.62
pIC50 [2, 4]: < 3.62
pIC50 ([3]; Homo sapiens, Raji): 5.52

Cn1c(=O)c(C#N)c(N2CCN(Cc3ccccc3NC(=O)Nc3ccccc3)CC2)c2nc(Br)ccc21 [Example 214, 1-(2-((4-(6-bromo-3-cyano-1-methyl-2-oxo-1,2-dihydro-1,5-naphthyridin-4-yl)piperazin-1-yl)methyl)phenyl)-3-phenylurea]
pIC50 [1]: 5.51
pIC50 [2, 4]: < 4.09
pIC50 ([3]; Homo sapiens, Raji): 6.26

C#CCOc1ccccc1C(c1ccc(F)cc1)N1CCN(c2c(C#N)c(=O)n(C)c3ccc(Br)nc23)CC1 (single isomer, unassigned) [Example 7, 6-bromo-4-{4-[(4-fluorophenyl) [2-(prop-2-yn-1-yloxy)phenyl]methyl]piperazin-1-yl}-1-methyl-2-oxo-1,2-dihydro-1,5-naphthyridine-3-carbonitrile]
pIC50 [1]: 6.30
pIC50 [2, 4]: 3.92
pIC50 [3]: 7.12

COc1cc(F)ccc1C(c1ccc(F)cc1)N1CCN(c2c([N+](=O)[O-])c(=O)n(C)c3ccc(Br)nc23)CC1 (single isomer, unassigned) [Example 57, 6-bromo-4-(4-((4-fluoro-2-methoxyphenyl)(4-fluorophenyl)methyl)piperazin-1-yl)-1-methyl-3-nitro-1,5-naphthyridin-2(1H)-one]
pIC50 [1]: 5.80
pIC50 [2, 4]: 3.96
pIC50 [3]: 6.85

Cn1c(=O)c(C#N)c(N2CCN(Cc3cccc4cc[nH]c34)CC2)c2nc(Cl)ccc21 [Example 303, 6-chloro-4-{4-[_(1H-indol-7-yl)methyl]piperazin-1-yl}-1-methyl-2-oxo-1,2-dihydro-1,5-naphthyridine-3-carbonitrile]
pIC50 [1]: 6.05
pIC50 [2, 4]: < 3.62
pIC50 ([3]; Homo sapiens, Raji): 6.74

Cn1c(=O)c(C#N)c(N2CCN(Cc3cccc4cn[nH]c34)CC2)c2nc(Br)ccc21 [Example 333, 6-bromo-4-{4-[(1H-indazol-7-yl)methyl]piperazin-1-yl}-1-methyl-2-oxo-1,2-dihydro-1,5-naphthyridine-3-carbonitrile]
pIC50 [1]: 5.30
pIC50 [2, 4]: 3.64
pIC50 ([3]; Homo sapiens, Raji): 6.27

Cc1cccc(C(c2ccc(F)cc2)N2CCN(c3c([N+](=O)[O-])c(=O)n(C)c4ccc(Br)nc34)CC2)c1O (single isomer, unassigned) [Example 85, 6-bromo-4-(4-((4-fluorophenyl)(2-hydroxy-3-methylphenyl)methyl)piperazin-1-yl)-1-methyl-3-nitro-1,5-naphthyridin-2(1H)-one]
pIC50 [1]: 5.12
pIC50 [2, 4]: 6.11
pIC50 ([3]; Homo sapiens, Raji): 7.00

COc1ccccc1C(c1ccc(F)cc1)N1CCN(c2c(C#N)c(=O)n(CC3CC3)c3ccc(Br)nc23)CC1 (single isomer, unassigned) [Example 160, 6-bromo-1-(cyclopropylmethyl)-4-(4-((4-fluorophenyl)(2-methoxyphenyl)methyl)piperazin-1-yl)-2-oxo-1,2-dihydro-1,5-naphthyridine-3-carbonitrile]
pIC50 [1]: 3.74
pIC50 [2, 4]: 3.80
pIC50 [3]: 5.54

CCn1ccc2c(CN3CCN(c4c(C#N)c(=O)n(C)c5ccc(Cl)nc45)CC3)cccc21 [Example 220, 6-chloro-4-(4-((1-ethyl-1H-indol-4-yl)methyl)piperazin-1-yl)-1-methyl-2-oxo-1,2-dihydro-1,5-naphthyridine-3-carbonitrile]
pIC50 [1]: 5.77
pIC50 [2, 4]: 4.05
pIC50 ([3]; Homo sapiens, Raji): 7.20

Cn1c(=O)c([N+](=O)[O-])c(N2CCN(C(c3ccc(F)cc3)c3cccc(F)c3O)CC2)c2nc(Br)ccc21 (single isomer, unassigned) [Example 75, 6-bromo-4-(4-((3-fluoro-2-hydroxyphenyl)(4-fluorophenyl)methyl)piperazin-1-yl)-1-methyl-3-nitro-1,5-naphthyridin-2(1H)-one]
pIC50 [1]: 5.59
pIC50 ([2]; DGKζ IC50, detergent/lipid micelle substrate): 3.89
pIC50 [3]: 6.85

Cn1c(=O)c(C#N)c(N2CCN(Cc3ccc(F)c(O)c3)CC2)c2nc(Cl)ccc21 [Example 348, 6-chloro-4-{4-[(4-fluoro-3-hydroxyphenyl)methyl]piperazin-1-yl}-1-methyl-2-oxo-1,2-dihydro-1,5-naphthyridine-3-carbonitrile]
pIC50 [1]: 6.66
pIC50 [2, 4]: 3.85
pIC50 ([3]; Homo sapiens, Raji): 5.89
